The structures appear in SMILES notation.

The test system of the data set is patients with disease modifying antirheumatic drug (DMARD)-resistant Rheumatoid Arthritis (RA).

Experimental: 20 patients with disease modifying antirheumatic drug (DMARD)-resistant Rheumatoid Arthritis (RA) are chosen for a clinical trial assessing safety and efficacy of 25% Xenon administration with 75% air. A total of 10 liters of gas inhaled. Administration is performed 3 times per week.
Safety is determined by assessment of hematological biochemical, and coagulation parameters on baseline, and days 30, 60, and 90. Efficacy is assessed by CRP, ESR, anti-citrulline antibody, RF, Quality of Life Questionnaire, 28-joint disease activity score (DAS28), European League against Rheumatism (EULAR) response criteria and immunological parameters. […]
Safety will be assessed throughout the study with the use of direct evaluation and patient reporting during study visits or patient-initiated telephone contacts. The types, frequencies, severity, and duration of any reported adverse event or abnormalities in clinical laboratory values, physical examinations, vital signs, or special cardiovascular evaluations will be assessed. […]
To assess preliminary evidence of efficacy, the following assessments will be analyzed at following time points and compared to baseline values: […]
Quality of Life Assessment at 1, 2, and 3 Months Measured by: • Change in Rheumatoid Arthritis Quality of Life (RAQoL) questionnaire

`[Xe]` [Xenon, xenon]: the “clinical and immunological parameters of RA” value (25% Xenon with 75% air, 10 liters inhaled, 3 times per week, DAS28, EULAR, RF, ESR, CRP, anti-citrulline antibody, RAQoL at 1, 2 and 3 months vs baseline) is “reduction of clinical and immunological parameters of RA is noted in a statistically significant manner”. The “treatment associated adverse events” value (human, in vivo) was “no significant treatment associated adverse events”.

The record behind these values is patent publication US10022397B2, “Treatment of rheumatoid arthritis using noble gas mixtures” (Nobilis Therapeutics, Inc., priority 2016, dated 2018).
